Assays:
[1] = test system: HMLER-shEcad cells; experiment: Mammosphere formation assay; assay type: cell-based, human; conditions: at IC20 value, single cell suspensions, 5 days incubation
Protocol: (§1) media. The final concentration of DMSO in each well was ≤1 %. After 72 h, 20 μl of MTT (4 mg mL-1 in PBS) was added to each well and the plates incubated for an additional 4 h at 37 °C. The media/MTT mixture was eliminated and DMSO (100 μl per well) was added to dissolve the formazan precipitates. The optical density was measured at 550 nm using a 96-well multiscanner autoreader. Absorbance values were normalised to (DMSO-containing) control wells and plotted as concentration of test compound versus % cell viability. IC50 values were interpolated from the resulting dose dependent curves. The reported IC50 values are the average of three independent experiments (n = 18).
(§2) Tumorsphere Formation and Viability Assay. […] Mammospheres treated with 1-3, 5-fluorouracil, capecitabine, cisplatin, carboplatin, and salinomycin (at their respective IC20 values, 5 days) were counted and imaged using an inverted microscope. The viability of the mammospheres was determined by addition of a resazurin-based reagent, TOX8 (Sigma). After incubation for 16 h, the fluorescence of the solutions was read at 590 nm (λex = 560 nm). […] Fluorescence values were normalised to DMSO-containing controls and plotted as concentration of test compound versus % mammospheres viability. […]
(§3) Cellular Uptake. […] The number of cells was counted at this stage, using a haemocytometer. […] Gold levels are expressed as mass of Au (ng) per million cells. […]

[2] = test system: HMLER-shEcad cells; experiment: Intracellular ROS assay (DCFH-DA, flow cytometry); assay type: cell-based, human; conditions: 0.4 μM
Protocol: as §1, §2, §3

[3] = test system: HEK 293 cells; experiment: Monolayer cytotoxicity (MTT assay), HEK 293 cells; assay type: cell-based; conditions: 72 h incubation
From the text: (§4) Cell Lines and Cell Culture Conditions. The human mammary epithelial HMLER and HMLER-shEcad cell lines were kindly donated by Prof. R. A. Weinberg (Whitehead Institute, MIT). The human epithelial breast MCF10A, breast adenocarcinoma MDA-MB-231 and MDA-MB-468, murine epithelial breast 4T1, and embryonic kidney HEK 293 cell lines were acquired from American Type Culture Collection (ATCC, Manassas, VA, USA).
(§5) HMLER, HMLER-shEcad, and MCF10A cells were maintained in Mammary Epithelial Cell Growth Medium (MEGM) with supplements and growth factors (BPE, hydrocortisone, hEGF, insulin, and gentamicin/amphotericin-B). MDA-MB-231, MDA-MB-468, 4T1, and HEK 293 cells were maintained in Dulbecco's Modified Eagle's Medium (DMEM) supplemented with fetal bovine serum (10 %) and penicillin/streptomycin (1 %). The cells were grown at 310 K in a humidified atmosphere containing 5% CO2.
Monolayer Cytotoxicity Studies. Exponentially growing cells were seeded at a density of approximately 5 × 10^3 cells per well in 96-well flat-bottomed microplates and allowed to attach for 24 h prior to addition of compounds. […]
media. […] The optical density was measured at 550 nm using a 96-well multiscanner autoreader. Absorbance values were normalised to (DMSO-containing) control wells and plotted as concentration of test compound versus % cell viability. […]

[4] = test system: MDA-MB-468 cells; experiment: Monolayer cytotoxicity (MTT assay), MDA-MB-468 cells; assay type: cell-based, human; conditions: 72 h incubation
From the text: as §4, §5
Monolayer Cytotoxicity Studies. Exponentially growing cells were seeded at a density of approximately 5 × 10^3 cells per well in 96-well flat-bottomed microplates and allowed to attach for 24 h prior to addition of compounds. Various concentrations of the test compounds (0.0004-100 μM) were added and incubated for 72 h at 37 °C (total volume 200 μl). Stock solutions of the compounds were prepared as 10 mM DMSO solutions and diluted using cell […]
as §1, with “18). […]” for “18).”
Cellular Uptake. […]

COc1ccc2c(c1)c(CC(=O)[O][Au][PH](c1ccccc1)(c1ccccc1)c1ccccc1)c(C)n2C(=O)c1ccc(Cl)cc1 [complex 1]
number and size of mammospheres formed [1]: greatest inhibitory effect | increase in intracellular ROS levels ([2]; 6 h exposure (peak)): 104% | increase in intracellular ROS levels ([2]; prolonged (16–24 h) exposure): statistically insignificant increases in ROS levels | IC50 [3]: 1.92 ± 0.23 µM | IC50 [4]: 4.47 ± 0.17 µM

From PMC9847679, “The anti-breast cancer stem cell properties of gold(I)-non-steroidal anti-inflammatory drug complexes” (Chemical Science, 2022)
